The source of these data is patent US6335360B1, “Tripeptidyl peptidase inhibitors” (Institut National de la Sante et de la Recherche Medicale …, priority 1997, dated 2002).

Data set [1] addresses T1, membrane TPP II (tripeptidyl peptidase II) (Rattus norvegicus, UniProt Q64560).
T1 construct: evaluated by measuring the activity of membrane TPP II; from tissue; host or cells: rat cerebral cortex membranes
In words: Inhibition of AAF-Amc hydrolysis by cerebral membranes (inhibition of TPP II). The note with it: for Ki: rat cerebral cortex membranes; for activity (stated in words): stereoisomers not separated (2(R/S) mixture). The format is biochemical. Here is the method:
The potency of the compounds of the invention was evaluated by measuring the activity of membrane TPP II.
Membranes of rat cerebral cortex were obtained by centrifugation (200,000×g min) of a homogenate in 10 volumes of a 50 mM potassium phosphate buffer, pH 7.4.
The centrifugation pellet was carefully washed and taken up in a buffer containing 10% glycerol and 0.1% Brij 35 to obtain a concentration of 25 mg protein/ml.
After 25 minutes of preincubation, incubation is carried out in 0.1 ml of a buffer containing 0.1% Brij 35, […], 25 μg of membrane protein and 50 μm of substrate Ala-Ala-Phe-Amc (AAF-Amc). Liberation of 7-amino4-methylcoumarin (Amc) is evaluated by fluorimetry.

The mark [2] stands for this setting: Table 1, substrate Ala-Ala-Phe-Amc, Ki calculated from 50% inhibition concentration and Km 23 μM, read-out: Ki (nM), Inhibition of AAF-Amc Hydrolysis by Cerebral Membranes.
[3] abbreviates: Table 2, comparative compounds known in the art, substrate AAF-Amc, read-out: Ki (nM), Inhibition of AAF-Amc Hydrolysis by Cerebral Membranes, comparative compound.

Structures can show the parent of a compound that is named as a salt. Where two headings read alike, the source gives them in different places.

What is called melting point is the temperature of the solid-liquid transition. Usually Ki stands for the equilibrium dissociation constant of an inhibitor or competing ligand from its target.

T1 sequence (Q64560 whole entry): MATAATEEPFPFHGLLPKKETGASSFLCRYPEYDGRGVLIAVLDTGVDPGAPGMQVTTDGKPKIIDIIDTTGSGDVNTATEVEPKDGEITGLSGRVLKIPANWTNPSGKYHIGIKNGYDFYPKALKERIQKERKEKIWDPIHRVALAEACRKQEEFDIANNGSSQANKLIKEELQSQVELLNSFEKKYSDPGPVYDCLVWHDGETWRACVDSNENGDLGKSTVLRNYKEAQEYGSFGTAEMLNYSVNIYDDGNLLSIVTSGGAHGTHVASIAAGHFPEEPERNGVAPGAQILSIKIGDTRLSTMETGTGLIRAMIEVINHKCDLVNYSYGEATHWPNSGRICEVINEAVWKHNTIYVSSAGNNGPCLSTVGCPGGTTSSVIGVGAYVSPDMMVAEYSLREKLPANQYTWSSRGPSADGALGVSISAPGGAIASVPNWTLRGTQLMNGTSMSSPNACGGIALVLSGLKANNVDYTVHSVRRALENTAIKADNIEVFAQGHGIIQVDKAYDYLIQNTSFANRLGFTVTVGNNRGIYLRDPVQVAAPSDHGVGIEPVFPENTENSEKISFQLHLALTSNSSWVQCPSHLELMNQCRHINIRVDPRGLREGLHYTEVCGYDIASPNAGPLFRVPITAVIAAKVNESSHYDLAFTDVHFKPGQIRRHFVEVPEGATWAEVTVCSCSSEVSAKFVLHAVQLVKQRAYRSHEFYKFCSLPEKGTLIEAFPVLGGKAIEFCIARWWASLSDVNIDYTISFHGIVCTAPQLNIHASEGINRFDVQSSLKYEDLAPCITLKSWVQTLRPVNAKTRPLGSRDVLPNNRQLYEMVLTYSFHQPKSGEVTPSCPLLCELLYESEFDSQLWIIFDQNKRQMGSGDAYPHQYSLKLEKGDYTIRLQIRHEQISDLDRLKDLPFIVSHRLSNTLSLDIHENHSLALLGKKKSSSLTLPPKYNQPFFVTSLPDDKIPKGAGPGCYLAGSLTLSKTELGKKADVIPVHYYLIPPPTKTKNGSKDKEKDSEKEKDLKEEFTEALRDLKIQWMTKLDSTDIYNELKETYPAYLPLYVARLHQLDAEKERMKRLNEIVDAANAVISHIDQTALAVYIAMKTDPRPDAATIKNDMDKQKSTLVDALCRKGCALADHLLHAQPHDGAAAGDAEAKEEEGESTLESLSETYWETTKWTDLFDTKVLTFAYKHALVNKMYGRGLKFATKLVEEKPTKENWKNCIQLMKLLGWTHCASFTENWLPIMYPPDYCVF

As to `CC[C@H](N)C(=O)N1c2ccccc2C[C@H]1C(=O)NCCSC.O=C(O)C(F)(F)F` [Example 3, 1-(2(S)-aminobutyryl)-indoline-2(S) carboxylic acid (2-methylthioethyl)amide trifluoroacetate], the melting point is 59.5 to 60.5 °C.

`CC[C@H](N)C(=O)N1c2ccccc2C[C@H]1C(=O)NCC1CC1.O=C(O)C(F)(F)F` [Example 4, 1-(2(S)-aminobutyryl)-indoline-2(S)-carboxylic acid N-(cyclopropylmethyl)amide trifluoroacetate] registered a melting point of 57 to 74 °C.

As to `CC[C@H](N)C(=O)N1c2cccc(F)c2CC1C(=O)NCC(F)(F)F.O=C(O)C(F)(F)F` (mixture of isomers) [Example 8, 1-(2(S)-aminobutyryl)-4-fluoroindoline-2(R/S)-carboxylic acid (2,2,2-trifluoroethyl)amide trifluoroacetate] [listing 1 of 2 here], the inhibition constant Ki in data set [1] (setting [2]) is 0.36 nM. Moreover, in data set [1], the “activity (stated in words)” value was “useful activity”.

`CCCCNC(=O)C1Cc2c(ccc(Cl)c2Cl)N1C(=O)[C@@H](N)CC.O=C(O)C(F)(F)F` (mixture of isomers) gave a melting point of 115 to 124 °C.

The compound `CC[C@H](N)C(=O)N1c2ccc(OC)c(OC)c2CC1C(=O)NCC(F)(F)F.O=C(O)C(F)(F)F` (mixture of isomers) came in with a melting point of 79 to 87 °C.

As for `CC[C@H](N)C(=O)N1c2ccc(O)cc2CC1C(=O)NCC(F)(F)F` (mixture of isomers) [Example 6, 1-(2(S)-aminobutyryl)-5-hydroxyindoline-2(R/S)-carboxylic acid (2,2,2,-trifluoroethyl)amide trifluoroacetate], the Ki in data set [1] (setting [2]) is 2.8 nM; in data set [1] (Table 2, compounds of the invention, substrate AAF-Amc, read-out: Ki (nM), Inhibition of AAF-Amc Hydrolysis by Cerebral Membranes, compound of the invention), 2.8 nM.

For `CC[C@H](N)C(=O)N1c2ccc(OC)cc2CC1C(=O)NCC(F)(F)F` (mixture of isomers) [Example 9, 1-(2(S)-aminobutyryl)-5-methoxyindoline-2(R/S)-carboxylic acid (2,2,2-trifluoroethyl)amide trifluoroacetate], in data set [1] (setting [2]), the Ki was 0.7 nM.

Regarding `CC[C@H](N)C(=O)C1c2c(ccc3ccccc23)N[C@@H]1C(=O)NCC(F)(F)F.O=C(O)C(F)(F)F` (stereo partly shown), the melting point was in the range of 64 to 78 °C.

In the case of `CC[C@H](N)C(=O)N1c2cccc(OC)c2C[C@H]1C(=O)NCC(F)(F)F.O=C(O)C(F)(F)F`, the melting point is 125 to 149 °C.

Compound `CC[C@H](N)C(=O)N1c2ccc(Cl)c(Cl)c2CC1C(=O)NCC(F)(F)F.O=C(O)C(F)(F)F` (mixture of isomers) showed a melting point of 68 to 78 °C.

For `CC[C@H](N)C(=O)N1c2cccc(Cl)c2CC1C(=O)NCC(F)(F)F.O=C(O)C(F)(F)F` (mixture of isomers) [Example 7, 1-(2(S)-aminobutyryl)-4-chloroindoline-2(R/S)-carboxylic acid (2,2,2-trifluoroethyl)amide trifluoroacetate] [listing 1 of 2 here], in data set [1] (setting [2]), the Ki is 0.56 nM. Moreover, the “activity (stated in words)” value in data set [1] is on record as “useful activity”.

`CCCCNC(=O)C1Cc2cc(O)ccc2N1C(=O)[C@@H](N)CC` (mixture of isomers) [C.C.4, 1-(2(S)-aminobutyryl)-5-hydroxyindoline-2(R/S)-carboxylic acid n-butylamide, reference compound]: in data set [1] (setting [3]), the Ki is 6.6 nM.

In the case of `CC[C@H](N)C(=O)N1c2ccc(OC(F)(F)F)cc2CC1C(=O)NCC(F)(F)F` (mixture of isomers) [Example 10, 1-(2(S)-aminobutyryl)-5-trifluoromethoxyindoline-2(R/S)-carboxylic acid (2,2,2-trifluoroethyl)amide trifluoroacetate], the Ki in data set [1] (setting [2]) is 1.1 nM.

The compound `CC[C@H](N)C(=O)N1c2cccc(Cl)c2CC1C(=O)NCC(F)(F)F.O=C(O)C(F)(F)F` (mixture of isomers) [Example 7, 1-(2(S)-aminobutyryl)-4-chloroindoline-2(R/S)-carboxylic acid (2,2,2-trifluoroethyl)amide trifluoroacetate] [listing 2 of 2 here] came in with a melting point of 104 to 106 °C.

For `CCCCNC(=O)[C@H]1Nc2ccc3ccccc3c2C1C(=O)[C@@H](N)CC.O=C(O)C(F)(F)F` (stereo partly shown), the melting point lay within 76 to 88 °C.

In the case of `CC[C@H](N)C(=O)N1c2ccc(Cl)cc2C[C@H]1C(=O)NCC(F)(F)F.O=C(O)C(F)(F)F` [Example 1, 1-(2(S)-aminobutyryl)-5-chloroindoline-2(S)-carboxylic acid (2,2,2-trifluoroethyl)amide trifluoroacetate], the melting point fell in the range of 34 to 35 °C. Besides, the Ki in data set [1] (setting [2]) is 0.4 nM.

Consider `CCCCNC(=O)[C@@H]1Cc2cc(Cl)ccc2N1C(=O)[C@@H](N)CC` [C.C.1, 1-(2(S)-aminobutyryl)-5-chloroindoline-2(S)-carboxylic acid n-butylamide, reference compound], for which, in data set [1] (setting [3]), the Ki worked out at 2.5 nM.

With `CC[C@H](N)C(=O)N1c2ccc3c(c2CC1C(=O)NCC(F)(F)F)OCO3.O=C(O)C(F)(F)F` (mixture of isomers), the melting point was 89 to 98 °C.

Consider `CCCCNC(=O)C1Cc2cc(OC)ccc2N1C(=O)[C@@H](N)CC` (mixture of isomers) [C.C.5, 1-(2(S)-aminobutyryl)-5-methoxyindoline-2(R/S)-carboxylic acid n-butylamide, reference compound], for which the Ki in data set [1] (setting [3]) was determined as 8 nM.

`CC[C@H](N)C(=O)N1c2cccc(C)c2CC1C(=O)NCC(F)(F)F.O=C(O)C(F)(F)F` (mixture of isomers) returned a melting point of 109 to 122 °C.

The compound `CC[C@H](N)C(=O)N1c2ccc(OC)cc2CC1C(=O)NCC(F)(F)F.O=C(O)C(F)(F)F` (mixture of isomers) [Example 9, 1-(2(S)-aminobutyryl)-5-methoxyindoline-2(R/S)-carboxylic acid (2,2,2-trifluoroethyl)amide trifluoroacetate] registered a melting point of 63.5 to 66 °C.

Take `CC[C@H](N)C(=O)N1c2ccc(Cl)cc2C[C@H]1C(=O)NCCCl.O=C(O)C(F)(F)F` [Example 2, 1-(2(S)-Aminobutyryl)-5-chloroindoline-2(S)-carboxylic acid 2-chloroethylamide trifluoroacetate]: the melting point was 80 to 88 °C. In addition, in data set [1] (setting [2]), the Ki was 1.7 nM.

On to `CC[C@H](N)C(=O)N1c2cccc(F)c2CC1C(=O)NCC(F)(F)F.O=C(O)C(F)(F)F` (mixture of isomers) [Example 8, 1-(2(S)-aminobutyryl)-4-fluoroindoline-2(R/S)-carboxylic acid (2,2,2-trifluoroethyl)amide trifluoroacetate] [listing 2 of 2 here], for which the melting point lay in the range of 57.5 to 58.5 °C.
